# Key:
# Assay type in all cases: cell-based, mouse
# [1] = tested on: iNOS; experiment: iNOS protein expression in RAW264.7 cell induced by LPS (Western blot); conditions: 2.5, 5, 10 and 20 μM, LPS 1 μg/mL, 12 hours, FIG. 3A
# Experimental: The expressed level of iNOS in RAW264.7 cell induced by LPS (1 μg/ml) was determined by using Western blot analysis. RAW264.7 cell was inoculated into […] in the concentration of 1×10^6 cell/well to incubate for 12 hours. Various concentration of KS-513 compound (2.5, 5, 10 and 20 μM) was pre-treated therewith and 1 μg/mL of LPS (L6529, Sigma) was added thereto to incubate for 12 hours.
# To extract protein, after washing the cell with ice-cold PBS three times, lysis buffer (50 mM Tris HCl (pH 8.0), 5 mM EDTA, 150 mM NaCl, 1% NP-40, 0.1% SDS, 1 mM PMSF, and protease inhibitor cocktail tablet (Roche, Germany, 11697498001) was added to the cell, reacted at 4° C. for 30 mins and centrifuged for 10 mins at the speed of 12,000 rpm to collect the supernatant.
# The equivalent amount of the protein was isolated by SDS-PAGE and the protein was transferred to nitrocellulose membrane (BR162-0145, Bio-Rad). […] The product was reacted with ECL system and the amount of protein was determined by imaging analysis apparatus (LAS-4000, Fujifilm).
# The quantitative determination of protein was performed by determining the absorbance using assay kit (Bradford protein assay kit, Thermo) at 595 nm and the result was shown in FIG. 3A.
# [2] = tested on: NO; experiment: NO production in LPS-treated RAW264.7 cell (Griess Reagent); conditions: for NO production (relative % comparing with LPS treatment group) / NO production, Inhibitory ratio (%): LPS 1 μg/mL, 24 hours
# Experimental: In order to determine the amount of NO reproduction in medium, following test was performed according to the method disclosed in the literature (Ding, A. H., et al., 1988, Release of reactive nitrogen intermediates and reactive oxygen intermediates from mouse peritoneal macrophages, Comparison of activating cytokines and evidence for independent production, Journal of Immunology, 141, pp 2407-2412).
# RAW264.7 cell was inoculated into 96 well plates in the concentration of 1×10^5 cell/well to incubate for 18 hours. Various concentration of KS-513 compound (2.5, 5, 10 and 20 μM) was pre-treated therewith and 1 μg/mL of LPS (L6529, Sigma) was added thereto to incubate for 24 hours. The equivalent amount of Griess Reagent (G4410, Sigma) to the medium was added thereto and reacted at room temperature for 10 mins to determine the absorbance at 540 nm. The level of NO in the medium was determined using by standard curve expressed according to various concentration of sodium nitrite and the result was shown in Table 5 and FIG. 3.
# [3] = tested on: COX-2; experiment: COX-2 protein expression in RAW264.7 cell induced by LPS (Western blot); conditions: LPS 1 μg/ml, FIG. 4A
# Experimental: In order to determine the inhibitory effect on the COX-2 protein expression and the reproduced level of PGE2, following test was performed by the method disclosed in the literature (Chen, C, et al., 1999, Involvement of p 38 mitogen-activated protein kinase in lipopolysaccharide-induced iNOS and COX-2 expression in J774 macrophage, Immunology, 97, pp 124-129)
# The expressed level of COX-2 in RAW264.7 cell induced by LPS (1 μg/ml) was determined by using Western blot analysis according to the method disclosed in Experimental Example 3.
# [4] = tested on: TNF-alpha; experiment: TNF-alpha production in LPS-treated RAW264.7 cell (ELISA); conditions: for TNF-alpha production (relative % comparing with LPS treatment group) / TNF-alpha production, Inhibitory ratio (%): LPS 1 μg/mL, 24 hours
# Experimental: (§1) RAW264.7 cell was inoculated into 96 well plates in the concentration of 1×10^5 cell/well to incubate for 18 hours. Various concentration of KS-513 compound (2.5, 5, 10 and 20 μM) was pre-treated therewith and 1 μg/mL of LPS (L6529, Sigma) was added thereto to incubate for 24 hours. The level of inflammatory cytokines such as IL-1beta, IL-6, TNF-alpha etc in the cell medium was determined by ELISA kit (IL-1beta:559603, IL-6:555240, TNF-alpha:5558534, BD) and the result was shown in FIG. 5 and Table 7-9.
# [5] = tested on: IL-1beta; experiment: IL-1beta production in LPS-treated RAW264.7 cell (ELISA); conditions: for IL-1beta production (relative % comparing with LPS treatment group) / IL-1beta production, Inhibitory ratio (%): LPS 1 μg/mL, 24 hours
# Experimental: as §1
# [6] = vs LPS treatment group (1 μg/ml), FIG. 5
compound,measurement,setting,value
"CO[C@@H]1C[C@H]2[C@H](OC(=O)c3ccc(O)cc3)[C@@H]3O[C@]3(CO)[C@H]2[C@H](O[C@@H]2O[C@H](CO)[C@@H](O)C(O)[C@H]2O)O1 (stereo partly drawn) [KS-513, (1aS, 1bS,2S,4S,5aR,6S,6aS)-1a-(hydroxymethyl)-4-methoxy-2-(((2S,3R,5S,6R)-3,4,5-trihydroxy-6-(hydroxymethyl)tetrahydro-2H-pyran-2-yl)oxy)octahydrooxireno[2′,3′:4,5]cyclopenta[1,2-c]pyran-6-yl 4-hydroxybenzoate]",expressed level of iNOS protein,[1],reduced in a dose dependent manner
same,NO production (relative % comparing with LPS treatment group),[2]; 2.5 μM,91.89 ± 4.24%
same,"NO production, Inhibitory ratio (%)",[2]; 2.5 μM,8.21%
same,NO production (relative % comparing with LPS treatment group),[2]; 5 μM,83.69 ± 3.79%
same,"NO production, Inhibitory ratio (%)",[2]; 5 μM,16.41%
same,NO production (relative % comparing with LPS treatment group),[2]; 10 μM,80.06 ± 2.68%
same,"NO production, Inhibitory ratio (%)",[2]; 10 μM,20.04%
same,NO production (relative % comparing with LPS treatment group),[2]; 20 μM,72.16 ± 3.57%
same,"NO production, Inhibitory ratio (%)",[2]; 20 μM,27.94%
same,reproduced level of NO,[2]; based on LPS treatment (100%),reduced in a dose dependent manner
same,expressed level of COX-2 protein,[3],reduced in a dose dependent manner
same,TNF-alpha production (relative % comparing with LPS treatment group),[4]; 2.5 μM,97.38 ± 0.58%
same,"TNF-alpha production, Inhibitory ratio (%)",[4]; 2.5 μM,2.62%
same,TNF-alpha production (relative % comparing with LPS treatment group),[4]; 5 μM,86.12 ± 1.14%
same,"TNF-alpha production, Inhibitory ratio (%)",[4]; 5 μM,13.88%
same,TNF-alpha production (relative % comparing with LPS treatment group),[4]; 10 μM,68.03 ± 2.51%
same,"TNF-alpha production, Inhibitory ratio (%)",[4]; 10 μM,31.97%
same,TNF-alpha production (relative % comparing with LPS treatment group),[4]; 20 μM,58.44 ± 3.50%
same,"TNF-alpha production, Inhibitory ratio (%)",[4]; 20 μM,41.56%
same,level of produced TNF-alpha,[4]; [6],reduced in a dose dependent manner
same,IL-1beta production (relative % comparing with LPS treatment group),[5]; 2.5 μM,95.17 ± 3.68%
same,"IL-1beta production, Inhibitory ratio (%)",[5]; 2.5 μM,4.83%
same,IL-1beta production (relative % comparing with LPS treatment group),[5]; 5 μM,76.69 ± 3.40%
same,"IL-1beta production, Inhibitory ratio (%)",[5]; 5 μM,23.31%
same,IL-1beta production (relative % comparing with LPS treatment group),[5]; 10 μM,61.56 ± 3.18%
same,"IL-1beta production, Inhibitory ratio (%)",[5]; 10 μM,38.44%
same,IL-1beta production (relative % comparing with LPS treatment group),[5]; 20 μM,46.10 ± 2.51%
same,"IL-1beta production, Inhibitory ratio (%)",[5]; 20 μM,53.9%
same,level of produced IL-1beta,[5]; [6],reduced in a dose dependent manner

# Source: US20180105548A1, “A novel compound (KS-513) isolated from Pseudolysimachion rotundum var. subintegrum, the composition comprising the same preventing or treating allergic disease, inflammatory disease, asthma or chronic obstructive pulmonary disease and the use thereof” (priority 2015, published 2018)
